Data: patent US8563578B2, “Antitumor properties of NO modified protease inhibitors” (Onconox APS, priority 2008, dated 2013)

Tests used:
p-Akt in B16 cells = experiment: Akt phosphorylation (cELISA, Western blot), B16; format: cell-based, mouse; conditions: 18.8 μM, B16 as representative (similar in C6)
Excerpt: A slightly modified method for cell-based ELISA (cELISA) by Versteeg (Versteed et al., 2000) was used to measure the expression of galactocerebroside, glial fibrilar acidic protein (GFAP), myelin basic protein (MBP), cyclin D3, p53 and p-AKT. Briefly, at the end of cultivation period cells were fixed in 4% paraformaldehyde, endogenous peroxydase was quenched with 1% H2O2 in PBS containing 0.1% Triton X-100 (PBST), and unspecific binding of antibodies blocked with PBST solution containing 10% FCS. […] The absorbance at 450 nm was measured in an automated microplate reader 15 min after incubation with peroxydase substrate TMB and subsequently to addition of 0.1 M HCl. To facilitate comparison between treatments, the obtained absorbances were corrected for the cell number that was determined by crystal violet staining, as described in the original protocol. […]
FIG. 6. […] (C) B16 cells (1×10^4 cells/well) were incubated for 24 h with 18.8 μM Saq-NO2 with or without Akt VI (50μg/ml) or 3-MA (1 mM) and cell viability was assessed by MTT. […]

mouse fibroblasts = experiment: Cell viability by CV test, primary fibroblasts; format: cell-based; conditions: 24 h, Sag at its IC50 dose
Excerpt: Rat glioma C6 and human glioblastoma U251 cell lines were a kind gift from Dr. Pedro Tranque (Universidad de Castilla-La Mancha, Albacete, Spain), murine melanoma B 16, and human adenocarcinoma HeLa, were a kind gift from Dr. Sinisa Radulovic (Institute for Oncology and Radiology of Serbia, Belgrade, Serbia) while mouse fibrosarcoma L929 was obtained from the European Collection of Animal Cell Cultures (Salisbury, UK). Human breast HCC1419 and prostate PC-3 cells were purchased from LGC Promochem srl (Venezia, Italy). Primary mouse fibroblasts and rat astrocytes were prepared as described (Mijatovic et al. 2004). […]
Reduction of 3-4,5-dimethylthiazol-2-yl)-2,5-diphenyltetrazolium bromide (MTT) to formazan depends on mitochondrial activity of cultured cells, absorption of crystal violet dye correlates with the number of adherent, live cells, while the release of cytosolic lactate dehydrogenase (LDH) indicates the disruption of membrane integrity caracteristic for necrotic cells. […] Mitohondrial-dependent production of formazan and intensity of absorbed crystal violet by adherent cells were assessed by an automated microplate reader at 570 nm, while the pyruvate-mediated conversion of 2,4-dinitrophenylhydrazine into visible hydrazone precipitate in LDH assay was measured at 492 nm. […]
FIG. 2. […] Cell viability was then evaluated by CV test. […]

SMILES | p-Akt expression / phosphorylation of AKT (p-Akt in B16 cells) | effect on viability of non-transformed primary fibroblasts (mouse fibroblasts)
CC(C)(C)NC(=O)[C@@H]1C[C@@H]2CCCC[C@@H]2CN1C[C@@H](O)[C@H](Cc1ccccc1)NC(=O)[C@H](CC(N)=O)NC(=O)c1ccc2ccccc2n1 [Saq, Saquinavir, reference compound] | abrogated p-Akt expression | highly toxic
CC(C)(C)NC(=O)[C@@H]1C[C@@H]2CCCC[C@@H]2CN1C[C@@H](O[N+](=O)[O-])[C@H](Cc1ccccc1)NC(=O)[C@H](CC(N)=O)NC(=O)c1ccc2ccccc2n1 [Saq-NO2, nitric ester of Saquinavir] | induced considerable transient phosphorylation of AKT | did not affect the viability
